Measured values: patent publication US9079874B2, “α-Lipoic acid nanoparticles and methods for preparing thereof” (Ezaki Glico Co., Ltd., priority 2007, dated 2015)

Tests used:
[1] = Thermostability test of preparation, Test Example 1 (60° C., HPLC); assay type: physicochemical; details: for Residual ratio(%) of α-lipoic acid: 60° C.
Protocol: The α-lipoic acid-MgCO3 nanoparticles produced in Example 1A, and the α-lipoic acid nanoparticles produced in Comparative Example 1A without adding magnesium chloride and sodium carbonate were respectively heated at 60° C., and the amounts of α-lipoic acid in the sample after one hour of heating and after 3 hours of heating were analyzed by HPLC. As a control, a reagent α-lipoic acid was used. The amount of α-lipoic acid after heating was divided by the amount of α-lipoic acid before heating, and the result was multiplied by 100 such that the residual ratio of α-lipoic acid was calculated. Symbol Δ represents the results of control reagent of α-lipoicacid, symbol ▪ represents the results of the α-lipoic acid dispersion liquid of Comparative Example 1, and symbol □ represents the results of the α-lipoic acid-MgCO3 nanoparticles of Example 1A.

[2] = Improvement in sulfurous odor, Test Example 2 (left indoors under sunlight); assay type: physicochemical; details: 0.1% α-lipoic acid in water, after two weeks
Description: The paste after freeze-drying of the α-lipoic acid-MgCO3 nanoparticles produced in Example 1A, and the paste after freeze-drying of the α-lipoic acid nanoparticles produced in Comparative Example 1A without adding magnesium chloride and sodium carbonate, were respectively dispersed in distilled water such that the final concentration of α-lipoic acid reached 0.1%. The dispersions were placed in transparent test tubes made of resin, and the test tubes were left to stand indoors under sunlight. As a control, an aqueous dispersion liquid having α-lipoic acid dissolved in water (final concentration of α-lipoic acid 0.1%), which was prepared by adding an alkali (5M NaOH) to reagent α-lipoic acid, and thereby adjusting the pH to 7 to 7.5, was also left to stand in the same manner.

3T3-L1 cells [3] = assay: Differentiation of preadipocytes, lipid accumulation by Oil Red O, Test Example 7; assay type: cell-based; details: added to adipocyte differentiation induction medium, 100, 250 or 500 μM α-lipoic acid, 4 days; nanoparticles of Example 20A
Protocol: 1.5 ml of D-MEM medium (D-MEM medium supplemented with 10% FCS, 100 units/ml of penicillin, and 100 μg/ml of streptomycin, all at final concentrations) was added to a plastic petri dish having a diameter of 3.5 cm. To this, 5.0×10^4 cells of 3T3-L1 cells, which are preadipocytes, were suspended, and precultured for 3 days to result in a confluent state. Thereafter, the medium was replaced with 3 ml of an adipocyte differentiation induction medium (D-MEM supplemented with 10% FCS, 100 units/ml of penicillin, 100 μg/ml of streptomycin, 5 μg/ml of insulin, 0.25 μM of dexamethasone, and 0.5 mM of isobutyl-methylxanthine (IBMX), all at final concentrations). After another 2 days, the medium was replaced with 3 ml of the adipocyte differentiation induction medium of the same composition, and then the culturing was carried out for 2 days. Thus, the culturing in the adipocyte differentiation induction medium was carried out for 4 days in total. During this culturing, an α-lipoic acid solution or the α-lipoic acid-MgCO3 nanoparticle solution of Example 20A was added to the adipocyte differentiation induction medium to result in 0, 100, 250 or 500 μM of α-lipoic acid concentration. […]
The amount of accumulated lipids in the cultured cells thus obtained was measured. […] The whole amount of this solution was recovered, and the absorbance at a wavelength of 520 nm was measured with a spectrophotometer.

3T3-L1 cells [4] = assay: Dedifferentiation of mature adipocytes, lipid accumulation by Oil Red O, Test Example 8; assay type: cell-based; details: added to adipocyte maturation medium, 100, 250 or 500 μM α-lipoic acid, 4 days; nanoparticles of Example 20A
Protocol: 1.5 ml of D-MEM medium (D-MEM medium supplemented with 10% FCS, 100 units/ml of penicillin, and 100 μg/ml of streptomycin, all at final concentrations) was added to a plastic petri dish having a diameter of 3.5 cm. To this, 5.0×10^4 cells of 3T3-L1 cells, which are preadipocytes, were suspended, and precultured for 3 days to result in a confluent state. Thereafter, the medium was replaced with 3 ml of an adipocyte differentiation induction medium (D-MEM medium supplemented with 10% FCS, 100 units/ml of penicillin, 100 μg/ml of streptomycin, 5 μg/ml of insulin, 0.25 μM of dexamethasone, and 0.5 mM of isobutyl-methylxanthine, all at final concentrations), and the culturing was carried out for 4 days to induce the differentiation into adipocytes. Thereafter, the medium was replaced with an adipocyte maturation medium (D-MEM medium supplemented with 10% FCS, 100 units/ml of penicillin, 100 μg/ml of streptomycin, and 5 μg/ml of insulin, all at final concentrations), and the culturing was carried out for 7 days. Thereafter, the medium was replaced with a test medium, and culturing was carried out for another 4 days. […]
The amount of accumulated lipids in the cultured cells thus obtained was measured. […] The total amount of this solution was recovered, and the absorbance at a wavelength of 520 nm was measured with a spectrophotometer.

[5] = cited from earlier work

Row | Residual ratio(%) of α-lipoic acid ([1]; heating time 0 hrs) [%] | Residual ratio(%) of α-lipoic acid ([1]; heating time 1 hr) [%] | Residual ratio(%) of α-lipoic acid ([1]; heating time 3 hrs) [%] | reduction of the amount of α-lipoic acid ([1]; after 3 hours of heating at 60° C.) | SMILES | sulfurous odor [2] | accumulation of lipids in cells (Oil Red O, 520 nm) (3T3-L1 cells [3]) | amount of lipid accumulation in mature adipocytes (Oil Red O, 520 nm) (3T3-L1 cells [4]) | pKa value [5]
1 | 100 | 50.51 | 44.20 | about 55% | O=C(O)CCCCC1CCSS1 (stereo not drawn) [α-lipoic acid] | characteristic sulfurous odor strongly emanated | reduction of the accumulation of lipids | almost indifferent from that of the non-added group | 4.76
2 | – | – | – | – | CC1=C(/C=C/C(C)=C/C=C/C(C)=C/C(=O)O)C(C)(C)CCC1 [retinoic acid] | – | – | – | 6.4
